Key:
dementia patients = assay: Clinical record analysis, MMSE change in dementia patients (MMSE less than or equal to 21) under donepezil hydrochloride oral administration; type: in vivo, human; settings: dementia patients oral-administered with donepezil hydrochloride
Description: Patients subjected to oral administration of donepezil hydrochloride, having an observation period of one or more years before the MMSE test date, and having first MMSE scores less than or equal to 26 were picked up from a clinical record. Among the patients, patients recorded to have been consecutively administered with cilostazol for 6 months or more in the observation period were classified as a donepezil hydrochloride and cilostazol combined use group (69 cases), and patients recorded to have experienced no cilostazol oral administration were classified as a donepezil hydrochloride single use group (87 cases). Cilostazol was oral-administered at a dosage of 50 to 200 mg/day in the morning and evening, and donepezil hydrochloride was administered at a dosage of 5 mg/day once in a day.
As a dementia patient group oral-administered with donepezil hydrochloride, patients with MMSE scores less than or equal to 21 were extracted. Then, the donepezil hydrochloride single use group (the single use group) was 51 cases (17 males and 34 females, average age: 78.2 years old) and the donepezil hydrochloride and cilostazol combined use group (the combined use group) was 35 cases (14 males and 21 females, average age: 79.3 years old). The average dosage of cilostazol in the combined use group was 139 mg/day.

MCI patients = assay: Retrospective clinical survey, MMSE change in patients with first MMSE score 22 to 26 (MCI), no anti-dementia drugs; type: in vivo, human
Description: Harmful proteins such as tau protein, α-synuclein protein, amyloid β protein, and ubiquitinated protein, which cause disorders in nerve function, are gradually accumulated in the brain with age. Irrespective of the type of accumulated harmful proteins, mild disorders in cognitive function is observed in an initial stage. However, in this stage, irreversible neuron degeneration in cranial nerve tissues has been seldom observed yet. Thus, activation of the interstitial flow, which is one of major drainage pathways of harmful proteins, might cure mild disorders of cognitive function. To examine this hypothesis, it was evaluated how consecutive oral administration of cilostazol affects cognitive functions of patients having MMSE scores greater than or equal to 22 and less than or equal to 26 and suspected to have mild deterioration of cognitive function.
A survey was conducted on consecutive cases (3183 cases in total) between 1996 and 2012 whose records of cilostazol administration exist, and examination using all the cases that match the following conditions was carried out. In this examination, to eliminate the influence of anti-dementia drugs, all the patients administered with anti-dementia drugs such as donepezil were removed from the analysis.
(i) The mini mental state exam (MMSE), which is a typical test of cognitive function, was performed twice or more with an interval of 6 months or more a case where the MMSE was performed three or more times, two examination results of the first examination and the last examination were selected);
(ii) The first MMSE score was greater than or equal to 22 and less than or equal to 26;
(iii) A case in which cilostazol was administered in a period at least more than a half of an MMSE observation period was selected as a group (hereinafter referred to as a treated group) subjected to consecutive treatment; and
(iv) A case in which cilostazol was administered in two months or less in the MMSE observation period was selected as a group (hereinafter referred to as an untreated group) not subjected to consecutive treatment.
(i) The rate of change in MMSE scores in each group (calculation method: [last MMSE score−first MMSE score]/MMSE observation period [years]); and
(ii) The rate of change in scores in each item of the MMSE test in each group (calculation method: [score of last MMSE test item−score of first MMSE test item]/MMSE observation period [years]).
In comparison between the two groups, statistical analysis was conducted such that the rate difference was obtained by using a chi-square test and other items were obtained by using a t test.

Structure (SMILES): O=C1CCc2cc(OCCCCc3nnnn3C3CCCCC3)ccc2N1 [cilostazol, 6-[4-(1-cyclohexyl-1H-tetrazole-5-yl)butoxy]3,4-dihydrocarbostyril]
- effectiveness for dementia (dementia patients): no effectiveness for dementia
- increase in MMSE scores (treated vs untreated group) (MCI patients; MCI patients, as described in Example (4)): about 4
- rate of change in MMSE score (MCI patients; MCI treated group (31 cases), first MMSE 22-26, average±standard error, P=0.007 vs untreated): 0.4±0.7 per year
- rate of change in MMSE item 5 of delayed recall (MCI patients; MCI treated group, score change/observation period [years], P=0.004 vs untreated): 0.16±0.13
- rate of change in MMSE item 9 of command with sentence (MCI patients; MCI treated group, score change/observation period [years], P=0.008 vs untreated): 0.01±0.06
- rate of change in MMSE item 11 of visual configuration (MCI patients; MCI treated group, score change/observation period [years], P=0.02 vs untreated): 0.03±0.08
- rate of change in MMSE item 1 of orientation to time (MCI patients; MCI treated group, score change/observation period [years], P=0.03 vs untreated): −0.13±0.16
- side effects leading to no consecutive cilostazol treatment (MCI patients; untreated group of MCI survey): side effects such as diarrhea and headaches

From patent US10016409B2, “Method for improving interstitial flow” (priority 2012, dated 2018)
